Experimental data published in patent US9242977B2, “Trk-inhibiting compound” (ONO PHARMACEUTICAL CO., LTD., priority 2012, dated 2016).

Assays:
[1] = test system: NGF-induced vascular hyper permeability; experiment: Suppression of rat NGF-induced vascular hyper permeability (in vivo test, Evans Blue); conditions: oral, 12 hours after administration, read-out: Rates of Suppression for Vascular Hyper Permeability (%)
Description: TrkA-inhibiting activity of the present compound was evaluated in vivo. The present compound dissolved in a medium was orally administered (adminstered volume: 5 mL/kg) to male CD(SD)IGS rats (7- to 9-week old, Charles River laboratories Japan, Inc.) shaved on the back. A medium was orally administered (adminstered volume: 5 mL/kg) to the control and normal groups. After 6 or 12 hours of administration, 3 μg/mL of a NGF (Mouse 2.5s, Natural, Invitrogen) solution prepared in 0.1% BSA (Sigma-Aldrich)-containing saline was intracutaneously administered (dose; 50 μL/site) at 3 sites on the back of animals under halothane anesthesia. For the normal group, 0.1% BSA-containing saline was intracutaneously administered (dose; 50 μL/site) at 3 sites on the back. Immediately after intracutaneous administration, 1% Evans Blue (Tokyo Chemical Industry Co., Ltd.) was administered intravenously from tail (adminstered volume: 3 mL/kg). After 10 minutes of administration, the animals were sacrificed by bleeding due to incision of the abdominal aorta. The sites of intracutaneous administration on the back (3 sites) were excised and the skin samples were respectively transferred to the wells in a 48-well plate (Asahi Glass Co., Ltd.). Formamide (0.8 mL/well) was added to the plate and the plate was sealed and incubated overnight at 60° C. The formamide extraction solution (200 μL) was transferred to a 96-well plate and the absorbance (wavelength: 620 nm) of Evans Blue extracted in formamide was measured on an absorbance microplate reader (SpectraMAX 190, Molecular Devices Japan, K.K.). Standard samples of Evans Blue dissolved in formamide (0, 0.78, 1.56, 3.13, 6.25, 12.5, 25 and 50 μg/mL) were measured at the same time for the absorbance (wavelength: 620 nm) to generate a calibration curve. Based on the calibration curve and the absorbances of samples, the concentrations of Evans Blue in the sample was calculated. The concentrations of Evans Blue for three skin samples collected from one aminal were averaged to obtain the vale for the animal. The rate of suppression for rat NGF-induced vascular hyper permeability of the present compound was calculated according to the following Equation 4: Suppression rate (%)=(1−(AX−AN)/(AC−AN)}×100 Equation 4
wherein AX: the concentration of Evans Blue of the test compound (an average value of 3 samples from one animal);
AN: the concentration of Evans Blue of the normal group (an average value of 3 samples from one animal);
AC: the concentration of Evans Blue of the control group (an average value of 3 samples from one animal).

[2] = biological target: Abl (Homo sapiens (Human), UniProt P00519); experiment: Enzyme inhibition activity test for kinases other than Trk (selectivity test): Abl; type: biochemical; conditions: test concentration 3 μM; read-out: Inhibition Rate (%) Abl
Chain of Abl (P00519 whole entry): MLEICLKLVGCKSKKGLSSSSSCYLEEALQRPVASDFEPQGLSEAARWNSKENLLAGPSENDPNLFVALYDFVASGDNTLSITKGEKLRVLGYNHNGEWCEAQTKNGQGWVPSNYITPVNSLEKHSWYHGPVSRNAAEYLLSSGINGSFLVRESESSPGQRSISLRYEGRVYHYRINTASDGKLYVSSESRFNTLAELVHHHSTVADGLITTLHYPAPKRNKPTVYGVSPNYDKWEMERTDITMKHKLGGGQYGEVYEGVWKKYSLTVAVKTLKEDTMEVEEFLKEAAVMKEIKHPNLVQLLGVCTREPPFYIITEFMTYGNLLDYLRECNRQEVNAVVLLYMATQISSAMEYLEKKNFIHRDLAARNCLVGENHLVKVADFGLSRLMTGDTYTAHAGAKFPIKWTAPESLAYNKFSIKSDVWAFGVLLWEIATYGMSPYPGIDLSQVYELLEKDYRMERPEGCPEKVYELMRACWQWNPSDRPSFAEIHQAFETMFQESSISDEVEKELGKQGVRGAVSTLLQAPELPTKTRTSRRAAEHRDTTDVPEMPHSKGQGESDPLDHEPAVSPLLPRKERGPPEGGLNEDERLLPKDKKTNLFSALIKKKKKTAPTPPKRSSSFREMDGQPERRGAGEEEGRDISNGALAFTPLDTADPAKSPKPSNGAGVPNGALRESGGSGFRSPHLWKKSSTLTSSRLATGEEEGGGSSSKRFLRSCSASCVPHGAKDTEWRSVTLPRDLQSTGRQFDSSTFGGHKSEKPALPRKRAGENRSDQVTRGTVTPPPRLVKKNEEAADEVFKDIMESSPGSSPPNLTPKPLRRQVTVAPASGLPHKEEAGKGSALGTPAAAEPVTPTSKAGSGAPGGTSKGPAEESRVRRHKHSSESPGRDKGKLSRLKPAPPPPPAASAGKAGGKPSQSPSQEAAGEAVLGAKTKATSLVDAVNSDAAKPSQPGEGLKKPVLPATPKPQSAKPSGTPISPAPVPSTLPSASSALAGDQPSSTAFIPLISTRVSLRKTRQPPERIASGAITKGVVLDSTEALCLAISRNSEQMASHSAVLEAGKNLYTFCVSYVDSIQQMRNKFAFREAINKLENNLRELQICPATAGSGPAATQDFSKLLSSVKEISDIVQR
Description: (§1) A test substance (present compound or comparative compound) was dissolved in dimethylsulfoxide and further diluted with dimethylsulfoxide to prepare a solution having a concentration of 100 times the test concentration of 3 μM. The solution was further diluted to 25-fold with an assay buffer (20 mM HEPES, 0.01% Triton X-100, 2 mM DTT, pH 7.5) to obtain a test substance solution. In a similar manner a positive control substance solution was prepared with a positive control substance.
(§2) A 4-times concentration solution (5 μL) of the test substance prepared with the assay buffer, 5 μL of a 4-times concentration solution of substrate/ATP/metal (Mg) and 10 μL of a 2-times concentration solution of kinase were mixed in a well of a polypropylene 384-well plate and allowed to react at room temperature for 1 hour. The reaction was terminated by adding 60 μL of a Termination Buffer (QuickScout Screening Assist MSA; Carna Biosciences). The substrate peptide and the phosphorylated peptide in the reaction solution were separated and quantified. The kinase reaction was assessed from the product ratio (P/(P+S)) calculated from the height (S) of the peak of the substrate peptide and the height (P) of the peak of the phosphorylated peptide. Other kinases used in the kinase selectivity experiments were, for example, Abl, c-Met, b-Raf, c-Kit and KDR. The following Table 2 indicates substrates, substrate concentrations, ATP concentrations and positive control substances used in respective kinase enzyme inhibition activity tests.
(§3) The inhibition rate was calculated from the average signal intensity of the test wells containing respective test substances provided that the average signal intensity of control wells each containing all reaction components was 0% inhibition and the average signal intensity of background wells (without addition of the enzyme) was 100% inhibition.

[3] = biological target: KDR (Homo sapiens (Human), UniProt P35968); experiment: Enzyme inhibition activity test for kinases other than Trk (selectivity test): KDR; type: biochemical; conditions: test concentration 3 μM; read-out: Inhibition Rate (%) KDR
Description: as §1, §2, §3

[4] = biological target: c-Kit (Homo sapiens (Human), UniProt P10721); experiment: Enzyme inhibition activity test for kinases other than Trk (selectivity test): c-Kit; type: biochemical; conditions: test concentration 3 μM; read-out: Inhibition Rate (%) c-Kit
Chain of c-Kit (P10721 26-976): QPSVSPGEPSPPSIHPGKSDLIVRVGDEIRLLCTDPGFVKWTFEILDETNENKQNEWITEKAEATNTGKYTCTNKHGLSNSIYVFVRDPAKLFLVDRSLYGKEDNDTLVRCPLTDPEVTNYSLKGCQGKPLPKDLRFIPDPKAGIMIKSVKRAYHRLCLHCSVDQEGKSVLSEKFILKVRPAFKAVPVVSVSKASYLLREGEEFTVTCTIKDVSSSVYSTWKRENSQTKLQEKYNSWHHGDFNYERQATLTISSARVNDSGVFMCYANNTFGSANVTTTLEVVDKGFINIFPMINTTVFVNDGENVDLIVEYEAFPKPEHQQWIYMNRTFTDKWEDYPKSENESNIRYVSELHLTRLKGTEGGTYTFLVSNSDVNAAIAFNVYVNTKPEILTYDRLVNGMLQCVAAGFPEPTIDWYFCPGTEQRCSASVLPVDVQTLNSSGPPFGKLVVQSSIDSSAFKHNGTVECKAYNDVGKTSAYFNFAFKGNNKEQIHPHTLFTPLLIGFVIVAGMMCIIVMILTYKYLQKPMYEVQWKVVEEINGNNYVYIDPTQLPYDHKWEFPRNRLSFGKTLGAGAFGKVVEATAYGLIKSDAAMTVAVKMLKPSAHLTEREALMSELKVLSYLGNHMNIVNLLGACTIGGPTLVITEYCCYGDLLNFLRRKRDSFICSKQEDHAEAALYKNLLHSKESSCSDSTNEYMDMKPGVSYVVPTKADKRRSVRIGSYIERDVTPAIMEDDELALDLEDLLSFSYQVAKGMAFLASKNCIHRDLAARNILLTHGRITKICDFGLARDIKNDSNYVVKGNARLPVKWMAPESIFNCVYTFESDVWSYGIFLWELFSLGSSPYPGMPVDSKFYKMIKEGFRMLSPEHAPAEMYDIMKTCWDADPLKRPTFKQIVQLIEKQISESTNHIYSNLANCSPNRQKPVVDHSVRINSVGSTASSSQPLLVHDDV
Description: as §1, §2, §3

[5] = biological target: b-Raf (Homo sapiens (Human), UniProt P15056); experiment: Enzyme inhibition activity test for kinases other than Trk (selectivity test): b-Raf; type: biochemical; conditions: test concentration 3 μM; read-out: Inhibition Rate (%) b-Raf
Chain of b-Raf (P15056 whole entry): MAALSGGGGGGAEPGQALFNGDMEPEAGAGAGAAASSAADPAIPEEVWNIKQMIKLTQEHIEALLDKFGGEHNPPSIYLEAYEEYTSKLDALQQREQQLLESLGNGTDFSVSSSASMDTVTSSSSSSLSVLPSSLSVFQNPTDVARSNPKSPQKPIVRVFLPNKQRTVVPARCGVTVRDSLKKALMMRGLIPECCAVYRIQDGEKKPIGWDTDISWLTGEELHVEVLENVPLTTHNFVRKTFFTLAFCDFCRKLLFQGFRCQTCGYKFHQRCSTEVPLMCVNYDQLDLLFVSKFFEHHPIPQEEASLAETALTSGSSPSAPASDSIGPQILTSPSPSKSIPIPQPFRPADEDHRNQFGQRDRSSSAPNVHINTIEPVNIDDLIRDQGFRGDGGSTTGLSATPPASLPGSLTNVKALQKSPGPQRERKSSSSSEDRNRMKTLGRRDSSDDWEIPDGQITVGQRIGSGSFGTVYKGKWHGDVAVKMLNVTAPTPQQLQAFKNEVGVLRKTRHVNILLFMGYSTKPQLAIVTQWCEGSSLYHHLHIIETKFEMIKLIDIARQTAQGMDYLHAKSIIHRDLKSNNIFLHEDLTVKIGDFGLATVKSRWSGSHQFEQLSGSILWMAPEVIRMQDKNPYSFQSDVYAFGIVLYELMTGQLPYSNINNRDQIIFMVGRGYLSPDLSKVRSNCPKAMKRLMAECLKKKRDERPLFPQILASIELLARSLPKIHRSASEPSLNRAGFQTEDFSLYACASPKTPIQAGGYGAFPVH
Description: as §1, §2, §3

[6] = biological target: c-Met (Homo sapiens (Human), UniProt P08581); experiment: Enzyme inhibition activity test for kinases other than Trk (selectivity test): c-Met; type: biochemical; conditions: test concentration 3 μM; read-out: Inhibition Rate (%) c-Met
Chain of c-Met (P08581 25-1390): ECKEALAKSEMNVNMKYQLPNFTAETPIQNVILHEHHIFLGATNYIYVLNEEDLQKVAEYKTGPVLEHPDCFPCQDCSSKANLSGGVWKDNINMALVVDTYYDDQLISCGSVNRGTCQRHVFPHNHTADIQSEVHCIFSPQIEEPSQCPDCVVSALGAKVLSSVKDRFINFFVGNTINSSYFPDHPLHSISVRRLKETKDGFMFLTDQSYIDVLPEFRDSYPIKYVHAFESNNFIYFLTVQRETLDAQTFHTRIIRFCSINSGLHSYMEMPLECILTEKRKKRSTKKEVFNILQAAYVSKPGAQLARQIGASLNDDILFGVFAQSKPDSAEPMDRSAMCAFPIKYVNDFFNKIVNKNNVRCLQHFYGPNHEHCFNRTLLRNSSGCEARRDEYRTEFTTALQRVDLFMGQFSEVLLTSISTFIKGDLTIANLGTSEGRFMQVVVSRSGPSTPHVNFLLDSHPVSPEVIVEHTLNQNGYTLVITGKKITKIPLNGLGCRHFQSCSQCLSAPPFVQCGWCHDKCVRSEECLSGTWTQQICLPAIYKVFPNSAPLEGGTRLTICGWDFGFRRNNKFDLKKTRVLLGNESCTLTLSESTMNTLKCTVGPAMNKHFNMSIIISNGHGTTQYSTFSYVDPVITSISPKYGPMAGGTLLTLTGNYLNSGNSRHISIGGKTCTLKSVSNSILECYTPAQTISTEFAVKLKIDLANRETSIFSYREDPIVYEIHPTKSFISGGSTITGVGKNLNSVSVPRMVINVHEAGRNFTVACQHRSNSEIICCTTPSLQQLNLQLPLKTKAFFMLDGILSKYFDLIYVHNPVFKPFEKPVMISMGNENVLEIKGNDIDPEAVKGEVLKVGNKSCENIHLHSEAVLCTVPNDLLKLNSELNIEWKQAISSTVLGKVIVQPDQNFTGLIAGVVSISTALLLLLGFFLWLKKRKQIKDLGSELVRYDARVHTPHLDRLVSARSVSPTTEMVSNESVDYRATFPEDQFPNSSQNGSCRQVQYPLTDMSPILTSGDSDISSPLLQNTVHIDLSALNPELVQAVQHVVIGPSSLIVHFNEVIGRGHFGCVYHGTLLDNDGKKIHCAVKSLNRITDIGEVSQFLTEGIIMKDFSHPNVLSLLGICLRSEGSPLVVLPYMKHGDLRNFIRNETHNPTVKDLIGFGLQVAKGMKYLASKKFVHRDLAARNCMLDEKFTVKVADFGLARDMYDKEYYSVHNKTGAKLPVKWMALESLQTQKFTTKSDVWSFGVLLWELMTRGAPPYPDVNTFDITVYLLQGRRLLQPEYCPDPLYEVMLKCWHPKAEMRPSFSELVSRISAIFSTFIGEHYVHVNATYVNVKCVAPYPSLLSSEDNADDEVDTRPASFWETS
Description: as §1, §2, §3

Row | SMILES | inhibition in vivo at 1 mg/kg [1] [%] | inhibition at 3 µM [2] [%] | inhibition at 3 µM [3] [%] | inhibition at 3 µM [4] [%] | inhibition at 3 µM [5] [%] | inhibition at 3 µM [6] [%]
1 | CCNc1ncc(-c2ccc(Oc3ccc(NC(=O)Nc4cc(C(F)(F)F)cnc4-c4ccc(C)c(C)c4)cn3)cc2)s1 [Example 34, 1-[2-(3,4-dimethylphenyl)-5-(trifluoromethyl)-3-pyridinyl]-3-(6-{4-[2-(ethylamino)-1,3-thiazol-5-yl]phenoxy}-3-pyridinyl)urea] | 75 |  |  |  |  | 
2 | CCNc1ncc(-c2ccc(Oc3ncc(NC(=O)Nc4cc(C(F)(F)F)cnc4-c4ccc(C)cc4)cn3)cc2)s1 [Example 23, 1-(2-{4-[2-(ethylamino)-1,3-thiazol-5-yl]phenoxy}-5-pyrimidinyl)-3-[2-(4-methylphenyl)-5-(trifluoromethyl)-3-pyridinyl]urea] | 78 | 25 | 15 | 31 | 23 | 6.5
3 | CCCNc1ncc(-c2ccc(Oc3ncc(NC(=O)Nc4cc(C(F)(F)F)ccc4Cl)cn3)cc2)s1 [Example 85-117, 1-[2-chloro-5-(trifluoromethyl)phenyl]-3-(2-{4-[2-(propylamino)-1,3-thiazol-5-yl]phenoxy}-5-pyrimidinyl)urea] | 74 | 0 | 0 | 19 | 13 | 0
4 | O=C(Nc1cnc(Oc2ccc(-c3cnc(N4CCCC4=O)s3)cc2)nc1)Nc1cc(C(F)(F)F)cnc1-c1ccccc1 [Example 54, 1-(2-{4-[2-(2-oxo-1-pyrrolidinyl)-1,3-thiazol-5-yl]phenoxy}-5-pyrimidinyl)-3-[2-phenyl-5-(trifluoromethyl)-3-pyridinyl]urea] | 88 | 8.9 | 2.4 | 7.2 | 17 | 0
5 | CCNc1ncc(-c2ccc(Oc3ncc(NC(=O)Nc4cc(C(F)(F)F)cnc4Oc4ccccc4)cn3)cc2)s1 [Example 48, 1-(2-{4-[2-(ethylamino)-1,3-thiazol-5-yl]phenoxy}-5-pyrimidinyl)-3-[2-phenoxy-5-(trifluoromethyl)-3-pyridinyl]urea] | 71 |  |  |  |  | 
6 | Cc1cccc(-c2ncc(C(F)(F)F)cc2NC(=O)Nc2cnc(Oc3ccc(-c4cnc(N5CCCC5=O)s4)cc3)nc2)c1 [Example 57, 1-[2-(3-methylphenyl)-5-(trifluoromethyl)-3-pyridinyl]-3-(2-{4-[2-(2-oxo-1-pyrrolidinyl)-1,3-thiazol-5-yl]phenoxy}-5-pyrimidinyl)urea] | 78 | 0 | 0 | 9.1 | 18 | 4.9
